Patent publication US8471027B2, “Adamantyl compounds” (Hoffmann-La Roche Inc., priority 2011, dated 2013)

Key:
[1] = tested on: phospho(Ser63)-c-jun in HK-2 cells; experiment: Cell-based assay for JNK inhibitors: in-cell ELISA of TNFα-stimulated phospho(Ser63)-c-jun in HK-2 cells; details: Homo sapiens, 10 ng/mL TNFα, 60 min preincubation with compound
Protocol: Cell-Based Assay for JNK Inhibitors
The cell-based assay employed the in-cell ELISA method to determine the ability of compounds to prevent the generation of phospho(Ser63)-c-jun in HK-2 cells (human proximal tubule cells) in response to stimulation with tumor necrosis factor α (TNFα). In brief, for quantification of phospho(Ser63)-c-jun, the cells (in 96-well format) were fixed and permeablized then incubated sequentially with a rabbit anti-phospho-c-jun First Antibody specific for the presence of the phospho-Ser63 epitope and a donkey anti-rabbit IgG Second Antibody linked to horseradish peroxidase (HRP) for colorimetric quantitation of binding. For determination of non-specific binding of the First Antibody, Blank wells were preincubated with a mouse anti-phospho(Ser63)-c-jun Blocking Antibody that prevented specific binding of the First Antibody to the phospho-Ser63 epitope, but which was not recognized by the donkey anti-rabbit IgG Second Antibody. […] Blank wells received no TNFα stimulation or compound. Additional Control wells received TNFα stimulation, but no compound. The signal obtained in this case was considered the value for 0% inhibition (Control value).
Stock cultures of HK-2 cells (ATCC, Manassas, Va.) were grown under a 5% CO2/[…] atmosphere at 37 degrees C. in Keratinocyte-SFM medium (KSFM, Invitrogen, Grand Island, N.Y.) containing 5 μg/L epidermal growth factor and 5 mg/L bovine pituitary extract (both supplied with the medium), additionally supplemented with 10% (v/v) fetal calf serum (FCS; Invitrogen, Grand Island, N.Y.) and 1% (v/v) antibiotic-antimycotic (ABAM: Sigma, St. Louis, Mo.). For assays, cells were seeded in collagen coated 96-well polystyrene plates (BD Biosciences, Franklin Lakes, N.J.) at a density of 40,000 cells/well and cultured for 24 h in the same medium (100 μL/well) followed by a further 16-24 h in 100 μL of similar medium, but without FCS. […] Cells were incubated for a further 30 minutes and then the medium was aspirated and the wells washed with 100 μL/well PBS followed by the addition of 100 μL 3.7% (v/v) Formaldehyde (Fisher Scientific, Fair Lawn, N.J.) in PBS. Plates were then allowed to stand at room temperature for 20 minutes before being washed with 200 μL/well of PBS. (Further steps were performed immediately or the plates were stored at 4 degrees C. and the assay completed the next day.) To each well was added 100 μL 1% (v/v) TritonX-100 (Sigma, St. Louis, Mo.) in PBS followed by 20 minutes standing at room temperature, washing with 200 μL/well PBS, the addition of 100 μL/well of Quenching buffer (1% (v/v) hydrogen peroxide (Sigma, St. Louis, Mo.) and 0.1% (w/v) sodium azide (Fisher Scientific, Fair Lawn, N.J.)) in PBS and a further 20 minutes at room temperature. Plates were then washed twice with 200 μL/well of 0.1% (v/v) Tween-20 (Teknova, Hollister, Calif.) in PBS before addition of 200 μL/well of 2% BSA/0.10% Tween-20 in PBS and a further 1 hour at room temperature. At this time, buffer was removed from Blank wells and replaced with 90 μL/well of mouse anti-phospho-c-jun-Ser63 (BD Bioscience, 558036) diluted 1:4000 in PBS containing 1% BSA/0.1% Tween-20 (Antibody Dilution Buffer). All other wells are replaced with 90 μL/well of rabbit anti-phospho-c-jun-Ser63 (Cell Signaling, 9261) diluted 1:250 in Antibody Dilution Buffer. After a further one hour, rabbit anti-phospho-c-jun-Ser63 is added directly to the solution in the Blank wells resulting in 1:250 dilution of this antibody. Plates were then placed on a slowly rotating platform at 4 degrees C. overnight. Wells were then washed thrice with 200 μL/well PBS/0.1% Tween-20. After addition of the third wash, the plates were placed on a slowly rotating platform for 15 minutes at room temperature. […]

JNK1 = JNK1 (Homo sapiens, UniProt P45983); experiment: In vitro JNK1 Assay (TR-FRET, phosphorylation of GST-c-Jun); format: biochemical; details: 0.2 nM JNK1, 26.7 nM GST-c-Jun, 2 μM ATP
Sequence of JNK1 (P45983 whole entry, species assumed, the tested form may be a part): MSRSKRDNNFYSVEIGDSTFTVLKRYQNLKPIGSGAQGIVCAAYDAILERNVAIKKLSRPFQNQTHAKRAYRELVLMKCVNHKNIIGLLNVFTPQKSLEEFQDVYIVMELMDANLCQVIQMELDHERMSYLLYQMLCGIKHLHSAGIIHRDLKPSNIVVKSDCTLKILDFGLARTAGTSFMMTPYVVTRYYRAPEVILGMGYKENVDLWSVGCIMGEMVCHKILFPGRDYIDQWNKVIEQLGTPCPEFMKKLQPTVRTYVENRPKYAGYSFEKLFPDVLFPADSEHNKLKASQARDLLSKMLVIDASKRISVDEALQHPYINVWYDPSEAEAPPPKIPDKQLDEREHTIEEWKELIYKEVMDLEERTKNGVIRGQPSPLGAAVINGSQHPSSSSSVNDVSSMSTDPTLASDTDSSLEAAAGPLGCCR
Protocol: Phosphorylation of GST-c-Jun protein (amino acid residues 1-79) was measured as JNK1 activity. […] The reaction buffer contained 50 mM HEPES, pH 7.0, 10 mM MgCl2, 1 mM DTT, 0.1 mM Na3 VO4 and 0.2 mg/mL BSA. After 30 min. incubation at room temperature, the reaction was terminated by adding buffer containing 8 mM EDTA and a polyclonal anti-phospho-c-Jun antibody (Cell Signaling #9261L), followed by an additional incubation of 30 min. at room temperature. […] Time-resolved Fluorescence Resonance Energy Transfer (TR-FRET) signals were measured 1 hr. later on the EnVision reader (Perkin Elmer). Compound potency was assessed at 10 serially diluted concentrations. Percentage of inhibition at each concentration was determined to generate an IC50 value for each compound.

phospho-(Ser63)-c-jun [2] = experiment: Mouse In Vivo TNFα-Induced Kidney and Liver Phospho-c-Jun Assay; parameters: species or system C57/BL6 mice; details: Example B, procedures identical to Example A
Protocol: Male C57/BL6 mice were obtained from Jackson Labs and acclimatized for at least one week prior to use at age 10-12 weeks. Mice (n=8 per group) were administered Compound I-1 (Group 3; 50 mg/kg from a 12.5 mg/mL preparation in 20% (v/v)DMSO/80% (v/v) PEG400) or vehicle alone (Groups 1 and 2) via oral gavage. One hour later, mice received an intravenous challenge of 5 μg/kg recombinant mouse TNFα (Sigma) in saline (Groups 2 and 3) or saline alone (Group 1). After a further 1 h, the animals were killed by carbon dioxide inhalation. Kidneys and livers were removed, rapidly frozen in liquid nitrogen and stored at −80 degrees until analysis.
For analysis of livers, portions of frozen tissue (100-200 mg) were homogenized in lysis buffer (Cell Signaling Technology) supplemented with 1% (v/v) of each of Phosphatase Inhibitor Cocktail-1 (Sigma), Phosphatase Inhibitor Cocktail-2 (Sigma), Protease Inhibitor Cocktail (Sigma) and 1 mM AEBSF (Sigma). The phospho-(Ser63)-c-jun content was quantified using an ELISA kit (Cell Signaling Technology).
Experimental procedures were identical to Example A, but using 7-chloro-3-(4-methanesulfonyl-benzyl)-4-oxo-1-phenyl-1,4-dihydro-quinoline-2-carboxylic acid methyl ester.

phospho-(Ser63)-c-jun [3] = experiment: Rat In Vivo TNFα-Induced Kidney Phospho-c-Jun Assay; parameters: species or system Sprague-Dawley rats; details: Example D, 2 doses of 75 mg/kg oral (0 and 12 h), TNFα 2.5 ug/kg i.v. at 23 h, killed 1 h later, normalized to Group 2 as 100%, mean (standard deviation)
Protocol: Male Sprague-Dawley rats were obtained from Charles River and acclimatized for at least one week prior to use at age 6-8 weeks. Rats (n=8 per group) were administered Compound I-1 (Group 3; 75 mg/kg from a Microprecipitated Bulk Powder formulation resuspended in Klucel vehicle at 18.75 mg/mL) or vehicle alone (Groups 1 and 2) via oral gavage. Seven hours later, rats received an intravenous challenge of 2.5 μg/kg recombinant rat TNFα (Sigma) in saline (Groups 2 and 3) or saline alone (Group 1). After a further 1 h, the animals were killed by carbon dioxide inhalation. Kidneys were removed, rapidly frozen in liquid nitrogen and stored at −80 degrees until analysis.
Sample analysis was performed as described for mouse kidneys in Example a.
Male Sprague-Dawley rats were obtained from Charles River and acclimatized for at least one week prior to use at age 6-8 weeks. Rats (n=8 per group) were administered Compound I-1 (Groups 3 and 4; 75 mg/kg from a Microprecipitated Bulk Powder formulation resuspended in Klucel vehicle at 18.75 mg/mL) or vehicle alone (Groups 1 and 2) via oral gavage. Group 3 received an additional identical dose 12 hours later. Group 4 received an additional identical dose at 8 and 16 hours after the first dose. […]

SMILES	EC50 [1] [nM]	IC50 (JNK1) [nM]	effect on the levels of phospho-(Ser63)-c-jun in the kidneys (phospho-(Ser63)-c-jun [2])	effect on the levels of phospho-(Ser63)-c-jun in the livers (phospho-(Ser63)-c-jun [2])	Kidney phospho-c-jun (phospho-(Ser63)-c-jun [3])
COC(=O)c1c(Cc2ccc(S(C)(=O)=O)cc2)c(=O)c2ccc(Cl)cc2n1-c1ccccc1 [7-chloro-3-(4-methanesulfonyl-benzyl)-4-oxo-1-phenyl-1,4-dihydro-quinoline-2-carboxylic acid methyl ester, reference compound]	15000	32	No significant effect	No significant effect	–
COC(=O)c1c(Cc2ccc(C(=O)N[C@@H]3[C@@H]4C[C@@H]5C[C@H]3C[C@@](O)(C5)C4)cc2)c(=O)c2cccnc2n1-c1ccccc1 [Compound I-1, rel-3-[4-((1S,2S,3R,5S,7S)-5-Hydroxy-adamantan-2-ylcarbamoyl)-benzyl]-4-oxo-1-phenyl-1,4-dihydro-[1,8]naphthyridine-2-carboxylic acid methyl ester]	4100	12	–	–	59.6 (30.0) %
COC(=O)c1c(Cc2ccc(C(=O)N[C@@H]3[C@@H]4C[C@@H]5C[C@H]3C[C@@](O)(C5)C4)cc2)c(=O)c2ccc(C(F)(F)F)nc2n1-c1ccccc1 [Compound I-25, rel-3-[4-((1S,2S,3R,5S,7S)-5-Hydroxy-adamantan-2-ylcarbamoyl)-benzyl]-4-oxo-1-phenyl-7-trifluoromethyl-1,4-dihydro-[1,8]naphthyridine-2-carboxylic acid methyl ester]	3600	77	–	–	–
COC(=O)c1c(Cn2ccc(C(=O)N[C@@H]3[C@@H]4C[C@@H]5C[C@H]3C[C@@](O)(C5)C4)cc2=O)c(=O)c2ccc(Cl)cc2n1-c1ccccc1 [Compound I-26, rel-7-Chloro-3-[4-((1S,2S,3R,5S,7S)-5-hydroxy-adamantan-2-ylcarbamoyl)-2-oxo-2H-pyridin-1-ylmethyl]-4-oxo-1-phenyl-1,4-dihydro-quinoline-2-carboxylic acid methyl ester]	3900	40	–	–	–
O=C(N[C@@H]1[C@@H]2C[C@@H]3C[C@H]1C[C@@](O)(C3)C2)c1ccc(Cc2c(-c3ncco3)n(-c3ccccc3)c3cc(Cl)ccc3c2=O)cc1 [Compound I-27, Rel-4-(7-Chloro-2-oxazol-2-yl-4-oxo-1-phenyl-1,4-dihydro-quinolin-3-ylmethyl)-N-((1S,2S,3R,5S,7S)-5-hydroxy-adamantan-2-yl)-benzamide]	8600	27	–	–	–
